We go through 10 molecules from publication PMC11513854, “De novo GTP synthesis is a metabolic vulnerability for the interception of brain metastases” (Cell Reports Medicine, 2024).

The term IC50 denotes the midpoint of a concentration-inhibition curve. A word on the Papp A→B: it is the apparent permeability from the apical to the basolateral side of a cell layer. Low values mean poor permeation, high ones ready permeation. By Papp B→A is commonly meant the apparent permeability from the basolateral to the apical side of a cell layer. Usually efflux ratio stands for a quotient of directional permeabilities that is used to spot active efflux. In general, fraction unbound refers to the share of the substance not bound to proteins or other matrix.

For one data set, the system named is neural stem cells. As to the kind of experiment: Dose-response assay, PrestoBlue, normal brain cell control. The data set is classed as cell-based. To be noted: Homo sapiens, 72-h treatment, N/A, not applicable. An excerpt: BM cell lines from primary lung (BT478, BT530), breast (BT923, BT930) and melanoma (BT673, BT917) cancers are derived from primary patient samples with written consent from the patients and approved by the Hamilton Health Sciences McMaster Health Sciences Research Ethics Board (REB #07366), in compliance with Canada’s Tri-Council Policy Statement on the Ethical Conduct for Research Involving Humans and International Ethical guidelines for Biomedical Research Involving Human Subjects. MDA-MB-231 was purchasedfrom American Type Culture Collection and used to generate a brain metastasis derivate following injection into the mammary fat pad and isolation from the brain at human endpoint. Cell lines are maintained in NeuroCult Complete (NCC) media consisting of NeuroCult NS-A Basal Medium (Stemcell technology #05750) and supplemented with 50 mL of NeuroCult Supplement, 20 ng/mL epidermal growth factor (EGF), 10 ng/mL fibroblast growth factor (FGF), 2 μg/mL heparin and 1% penicillin-streptomycin. Human fetal neural stem cells (hNSCs) are derived in-house using a previously described protocol.[62] Normal human astrocytes are purchased from American Type Culture Collection. All cell lines were maintained at 37°C with a humidified atmosphere of 5% CO2.
The half maximal inhibitory concentration (IC50) is determined by plotting percent cell viability by the logarithmic concentration of drug. IC80 concentrations will be used for subsequent functional assays (cell proliferation, sphere formation), as determined by the following formula: ICF=100−F/F^1/H×IC50 where F = fraction of maximal response and H = hill slope.

A further data set relates to lung-BMIC line (BT478). As to the kind of experiment: Dose-response assay, PrestoBlue. The data set is classed as cell-based, human. The conditions noted are these: Homo sapiens; BT478, 72-h treatment, PrestoBlue; N/A, not applicable; read-out: Lung-BM IC50. The protocol:
(§1) For preliminary drug screening, drugs were plated at a concentration of 10 μM in a 96-well plate, in triplicate at a density of 1000 cells/well, and incubated at 37°C with a humidified atmosphere of 5% CO2 for three days. Vehicle controls for cell death are used in each functional experiment. Following treatment, PrestoBlue (20 μL, Invitrogen), a resazurin-based cell viability reagent and fluorescence indicator of cell metabolism, was added to each well to estimate proliferation approximately 2 h prior to measuring fluorescence intensity via FLUOstar Omega Fluorescence 556 Microplate reader (BMG LABTECH) at an excitation and emission wavelength of 540 nm and 590 nm, respectively. Results were analyzed using Omega analysis software.
Dose-response assays were conducted using the same protocol apart from drugs being plated using 2-fold serial dilutions (20 μM - 39 nM) as previously described.[66] The half maximal inhibitory concentration (IC50) is determined by plotting percent cell viability by the logarithmic concentration of drug. IC80 concentrations will be used for subsequent functional assays (cell proliferation, sphere formation), as determined by the following formula: ICF=100−F/F^1/H×IC50 where F = fraction of maximal response and H = hill slope.

A further data set deals with MDR1-MDCKII cells. Description: Bi-directional permeability via MDR1-MDCKII cells. The data set is classed as in vitro ADME. As for the experimental part: (§2) MDR1-MDCKII permeability assays were performed by Wuxi AppTec Co. Briefly, MDR1-MDCK1 cells were seeded onto polycarbonate membranes in 96-well insert system plates and allowed to develop into monolayers. […] The plate was incubated for 2.5 h (37°C, 5% CO2) and the media was sampled on either side and the compound present was quantified by LC-MS/MS and the concentrations were used to calculate the efflux ratio. Digoxin (10 μM), nadolol (2 μM), and metoprolol (2 μM) were used as controls.

In another data set the test system is MDR1. As to the kind of experiment: Bi-directional permeability via MDR1-MDCKII cells. The format is in vitro ADME. The conditions noted are these: dog, MDCK-MDR1, pH 7.4; 2 μM (digoxin 10 μM), 2.5 h. The protocol:
as §2

A short description of data set [1]: Brain homogenate binding, equilibrium dialysis. The format is in vitro ADME, mouse. To be noted: CD-1, mouse, pooled brain homogenate, pH 7.4, 37°C. The protocol: The samples were applied to a dialysis well plate and sealed with dialysis membrane. Dialysis buffer (100 mM sodium phosphate pH 7.4, 150 mM NaCl) was applied to opposite side of the membrane (receiver well of the plate), and samples were incubated at 37°C with 5% CO2 for 4 h. Following completion of incubation period, samples were recovered from each side of the dialysis membrane and processed by protein precipitation, and analysis by LC-MS/MS for compound concentration. A corresponding set of samples was also prepared and stop solution (acetonitrile containing 200 ng/mL tolbutamide and 200 ng/mL labetalol) was immediately added, and samples were obtained from each side of the dialysis plate for mass spectrometric analysis.
On the technique in general: Equilibrium dialysis compares concentrations on both sides of a semipermeable membrane.

Data set [2] deals with patient-derived lung-BMIC line (BT478). Description: Preliminary drug screen of CMap compounds, PrestoBlue viability. The data set is classed as cell-based, human. To be noted: 10 μM, 72 h, PrestoBlue readout.
Text: In this work, we aimed to identify potential druggable targets for BM, by characterizing the transcriptomes of pre-metastatic lung-, breast-, and melanoma-BMICs (see Figure 1A).[13]^,[14] We identified 3,951 genes that are commonly differentially expressed in the pre-metastatic cohort of cells compared to BMICs isolated from established patient tumors (Figure 1C).[14] We input the shared gene signature of pre-metastatic BMICs (defined by the commonly shared gene signature from BMICs of all three primary tumor cohorts) as a query signature for computational CMap[17] analysis to identify compounds that evoke opposing transcriptional changes (see Figure 1A). […]
as §1, with “Vehicle controls for cell death are used in each functional experiment.” left out

On to `COc1c(C)c2c(c(O)c1C/C=C(\C)CCC(=O)OCCN1CCN(C(=O)OC(C)(C)C)CC1)C(=O)OC2` [Compound 2], for which the IC50 in the data set with neural stem cells is 353 µM; in the data set with lung-BMIC line (BT478) it was 17.1 µM.

`COc1c(C)c2c(c(O)c1C/C=C(\C)CCC(=O)N1CCN(C)CC1)C(=O)OC2` [Compound 4] came in with an IC50 in the data set on neural stem cells of 493 µM. Still for that read-out and setting: for `COc1c(C)c2c(c(O)c1C/C=C(\C)CCC(=O)NCCCN1CCC1)C(=O)OC2` [Compound 5] the value was 182 µM.

On to `COc1c(C)c2c(c(O)c1C/C=C(\C)CCC(=O)NCCN1CCCC1)C(=O)OC2` [Compound 6], for which the figures for the IC50 in the data set on neural stem cells and in the data set with lung-BMIC line (BT478) were 70.8 µM and 24.7 µM, respectively.

`C[C@H]1O[C@@H](O[C@H]2[C@@H](O)C[C@H](O[C@H]3[C@@H](O)C[C@H](O[C@H]4CC[C@@]5(C)[C@H](CC[C@@H]6[C@@H]5C[C@@H](O)[C@]5(C)[C@@H](C7=CC(=O)OC7)CC[C@]65O)C4)O[C@@H]3C)O[C@@H]2C)C[C@H](O)[C@@H]1O` [Digoxin]: the “Rank of Papp” value in the data set on MDR1-MDCKII cells was “Low”. For the same molecule, in the data set on MDR1, the Papp A→B at 2.5 h, 2 μM amounted to 0.556 ×10⁻⁶ cm/s; the Papp B→A at 2.5 h, 2 μM came out at 11.8 ×10⁻⁶ cm/s; the efflux ratio at 2.5 h, 2 μM is 21.2. For the molecule `COc1c(C)c2c(c(O)c1C/C=C(\C)CCC(=O)OCCN1CCOCC1)C(=O)OC2` [MMF (1), Mycophenolate mofetil], the IC50 in the data set with neural stem cells turned out to be 31.2 µM; with lung-BMIC line (BT478), 48 µM.

`COCCc1ccc(OCC(O)CNC(C)C)cc1` (stereo not drawn) [Metoprolol]: in the data set on MDR1-MDCKII cells, the “Rank of Papp” value is “High”. This molecule had a Papp A→B at 2.5 h, 2 μM in the data set with MDR1 of 29.5 ×10⁻⁶ cm/s. In the case of `CC(C)(C)NCC(O)COc1cccc2c1CC(O)C(O)C2` (stereo not drawn) [Nadolol], in the data set on MDR1-MDCKII cells, the “Rank of Papp” value is “Low”. Besides, in the data set with MDR1, the Papp A→B at 2.5 h, 2 μM is 0.198 ×10⁻⁶ cm/s. In data set [1], `CC(C)NCC(O)COc1cccc2ccccc12` (stereo not drawn) [Propranolol] had a fraction unbound at 4 h, 2 μM of 0.023. As to `CN1CCc2cccc3c2[C@H]1Cc1ccc(O)c(O)c1-3` [apomorphine], the “viability of lung-BMICs (BT478) compared to vehicle control” value in data set [2] is “significantly inhibited BMIC viability”.
